{
  "source": "paper PMC11487561",
  "about": "(ACS Chemical Neuroscience, 2024)",
  "key": {"Muscarinic M3": {"target": "Muscarinic M3 (Homo sapiens, UniProt P20309)", "sequence (P20309 whole entry)": "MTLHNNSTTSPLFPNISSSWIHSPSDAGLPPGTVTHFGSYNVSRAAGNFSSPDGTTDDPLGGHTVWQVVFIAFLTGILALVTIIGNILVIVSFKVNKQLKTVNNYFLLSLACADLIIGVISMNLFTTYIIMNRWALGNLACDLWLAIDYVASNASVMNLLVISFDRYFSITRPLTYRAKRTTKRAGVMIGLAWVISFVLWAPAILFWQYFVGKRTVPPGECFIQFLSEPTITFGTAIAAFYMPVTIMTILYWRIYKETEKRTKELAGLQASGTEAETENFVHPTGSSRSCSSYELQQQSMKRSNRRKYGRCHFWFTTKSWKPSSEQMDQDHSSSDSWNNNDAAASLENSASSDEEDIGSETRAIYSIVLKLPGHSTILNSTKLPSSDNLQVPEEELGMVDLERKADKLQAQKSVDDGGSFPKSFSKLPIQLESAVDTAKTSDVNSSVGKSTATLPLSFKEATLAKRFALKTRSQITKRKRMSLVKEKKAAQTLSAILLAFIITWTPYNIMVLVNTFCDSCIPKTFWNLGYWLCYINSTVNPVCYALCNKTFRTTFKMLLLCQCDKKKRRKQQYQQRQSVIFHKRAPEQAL", "test": "Lead Profiling Screen – Eurofins Panlabs", "assay_type": "binding", "details": "read-out: % inh at 10 μM"}, "Dopamine D3": {"target": "T1, Dopamine D3 (Homo sapiens, UniProt P35462)", "T1 construct": "Eurofins Panlabs (contract screen)", "T1 sequence (P35462 whole entry)": "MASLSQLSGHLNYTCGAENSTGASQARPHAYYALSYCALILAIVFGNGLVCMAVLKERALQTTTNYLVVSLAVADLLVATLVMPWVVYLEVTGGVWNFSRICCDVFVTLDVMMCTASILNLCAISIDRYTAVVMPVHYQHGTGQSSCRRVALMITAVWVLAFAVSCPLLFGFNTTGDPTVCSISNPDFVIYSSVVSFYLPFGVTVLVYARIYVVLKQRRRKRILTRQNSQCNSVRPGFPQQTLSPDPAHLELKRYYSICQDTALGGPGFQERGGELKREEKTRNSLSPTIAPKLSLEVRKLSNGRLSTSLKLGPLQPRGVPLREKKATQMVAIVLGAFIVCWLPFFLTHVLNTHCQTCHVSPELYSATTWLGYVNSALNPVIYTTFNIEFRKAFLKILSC", "test": "Lead Profiling Screen – Eurofins Panlabs", "assay_type": "binding", "details": "read-out: % inh at 10 μM"}, "[1]": {"target": "Transporter, Dopamine (DAT) (Homo sapiens, UniProt Q01959)", "test": "Lead Profiling Screen – Eurofins Panlabs", "assay_type": "binding", "details": "read-out: % inh at 10 μM"}, "Opiate δ1 (OP1, DOP)": {"target": "Opiate δ1 (OP1, DOP) (Homo sapiens, UniProt P41143)", "test": "Lead Profiling Screen – Eurofins Panlabs", "assay_type": "binding", "details": "read-out: % inh at 10 μM"}, "Endothelin ETB": {"target": "T2, Endothelin ETB (Homo sapiens, UniProt P24530)", "T2 construct": "Eurofins Panlabs (contract screen)", "T2 sequence (P24530 27-442)": "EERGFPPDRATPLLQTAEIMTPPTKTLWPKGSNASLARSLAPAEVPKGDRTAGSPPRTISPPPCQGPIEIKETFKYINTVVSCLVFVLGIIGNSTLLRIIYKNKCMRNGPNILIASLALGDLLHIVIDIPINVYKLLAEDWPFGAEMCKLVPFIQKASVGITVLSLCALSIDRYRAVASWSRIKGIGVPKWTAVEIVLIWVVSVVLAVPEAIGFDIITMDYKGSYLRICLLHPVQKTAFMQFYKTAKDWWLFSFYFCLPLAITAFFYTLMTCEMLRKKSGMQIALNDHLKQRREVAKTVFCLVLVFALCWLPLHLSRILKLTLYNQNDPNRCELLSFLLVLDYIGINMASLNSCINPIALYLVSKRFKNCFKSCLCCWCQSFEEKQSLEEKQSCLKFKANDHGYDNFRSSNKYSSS", "test": "Lead Profiling Screen – Eurofins Panlabs", "assay_type": "binding", "details": "read-out: % inh at 10 μM"}, "human M3": {"target": "human M3 (Homo sapiens, UniProt P20309)", "sequence (P20309 whole entry)": "as the sequence (P20309 whole entry) above", "test": "Calcium mobilization assay, muscarinic selectivity", "assay_type": "cell-based"}, "[2]": {"target": "Nicotinic Acetylcholine α1, Bungarotoxin (Homo sapiens, UniProt P02708+P07510+Q07001)", "test": "Lead Profiling Screen – Eurofins Panlabs", "assay_type": "binding", "details": "read-out: % inh at 10 μM"}, "[3]": {"test": "MDCK-MDR1 permeability assay", "assay_type": "in vitro ADME", "details": "dog"}, "[4]": {"target": "Platelet Activating Factor (PAF) (Homo sapiens, UniProt P25105)", "sequence (P25105 whole entry)": "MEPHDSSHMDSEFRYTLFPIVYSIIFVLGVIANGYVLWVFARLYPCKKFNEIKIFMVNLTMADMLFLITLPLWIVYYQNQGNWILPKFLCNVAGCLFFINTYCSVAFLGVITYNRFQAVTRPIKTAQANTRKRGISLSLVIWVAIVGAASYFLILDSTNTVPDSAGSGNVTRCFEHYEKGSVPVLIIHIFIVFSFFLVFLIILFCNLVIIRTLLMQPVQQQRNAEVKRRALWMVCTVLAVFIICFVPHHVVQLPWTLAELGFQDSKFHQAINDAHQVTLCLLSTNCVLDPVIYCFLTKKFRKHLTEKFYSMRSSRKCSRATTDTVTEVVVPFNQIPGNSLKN", "test": "Lead Profiling Screen – Eurofins Panlabs", "assay_type": "binding", "details": "read-out: % inh at 10 μM"}, "Prostanoid EP4": {"target": "Prostanoid EP4 (Homo sapiens, UniProt P35408)", "sequence (P35408 whole entry)": "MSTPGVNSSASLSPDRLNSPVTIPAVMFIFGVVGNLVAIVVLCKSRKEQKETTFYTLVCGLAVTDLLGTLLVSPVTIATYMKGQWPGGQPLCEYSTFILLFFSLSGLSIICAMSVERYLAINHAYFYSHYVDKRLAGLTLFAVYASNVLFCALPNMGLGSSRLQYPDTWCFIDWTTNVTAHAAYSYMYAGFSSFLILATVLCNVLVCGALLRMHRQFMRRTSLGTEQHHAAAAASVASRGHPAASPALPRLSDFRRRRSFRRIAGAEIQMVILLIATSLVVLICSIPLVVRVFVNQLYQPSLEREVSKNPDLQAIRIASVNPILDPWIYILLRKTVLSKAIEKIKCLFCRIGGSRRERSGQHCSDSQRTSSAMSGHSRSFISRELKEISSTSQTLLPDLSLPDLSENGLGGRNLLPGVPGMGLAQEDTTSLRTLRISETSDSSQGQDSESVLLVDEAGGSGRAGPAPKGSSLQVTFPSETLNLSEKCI", "test": "Lead Profiling Screen – Eurofins Panlabs", "assay_type": "binding", "details": "read-out: % inh at 10 μM"}, "Adrenergic α1A": {"target": "T3, Adrenergic α1A (Rattus norvegicus, UniProt P43140)", "T3 construct": "Eurofins Panlabs", "T3 sequence (P43140 whole entry)": "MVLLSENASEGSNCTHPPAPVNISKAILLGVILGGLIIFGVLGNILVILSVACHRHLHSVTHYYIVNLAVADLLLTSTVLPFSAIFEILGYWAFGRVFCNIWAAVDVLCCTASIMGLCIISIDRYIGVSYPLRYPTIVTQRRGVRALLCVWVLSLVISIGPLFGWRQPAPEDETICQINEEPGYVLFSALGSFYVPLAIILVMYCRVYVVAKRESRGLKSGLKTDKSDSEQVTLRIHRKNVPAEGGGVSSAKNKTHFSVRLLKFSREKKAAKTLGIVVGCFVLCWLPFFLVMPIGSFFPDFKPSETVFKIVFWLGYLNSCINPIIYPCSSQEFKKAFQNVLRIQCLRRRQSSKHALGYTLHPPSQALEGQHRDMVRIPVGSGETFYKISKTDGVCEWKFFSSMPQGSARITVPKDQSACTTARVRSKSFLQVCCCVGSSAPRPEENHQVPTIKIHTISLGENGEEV", "test": "Lead Profiling Screen – Eurofins Panlabs", "assay_type": "binding", "details": "read-out: % inh at 10 μM"}, "CYP 3A4": {"target": "T4, CYP 3A4 (Homo sapiens, UniProt P08684)", "T4 construct": "from tissue; host or cells: pooled human liver microsomes (according to the earlier reading)", "test": "P450 inhibition in pooled human liver microsomes", "assay_type": "in vitro ADME", "details": "pooled HLM, NADPH, CYP-specific probe substrates"}, "[5]": {"target": "T5, Epidermal Growth Factor (EGF) (Homo sapiens, UniProt P00533)", "T5 construct": "Eurofins Panlabs (contract screen)", "T5 sequence (P00533 25-1210)": "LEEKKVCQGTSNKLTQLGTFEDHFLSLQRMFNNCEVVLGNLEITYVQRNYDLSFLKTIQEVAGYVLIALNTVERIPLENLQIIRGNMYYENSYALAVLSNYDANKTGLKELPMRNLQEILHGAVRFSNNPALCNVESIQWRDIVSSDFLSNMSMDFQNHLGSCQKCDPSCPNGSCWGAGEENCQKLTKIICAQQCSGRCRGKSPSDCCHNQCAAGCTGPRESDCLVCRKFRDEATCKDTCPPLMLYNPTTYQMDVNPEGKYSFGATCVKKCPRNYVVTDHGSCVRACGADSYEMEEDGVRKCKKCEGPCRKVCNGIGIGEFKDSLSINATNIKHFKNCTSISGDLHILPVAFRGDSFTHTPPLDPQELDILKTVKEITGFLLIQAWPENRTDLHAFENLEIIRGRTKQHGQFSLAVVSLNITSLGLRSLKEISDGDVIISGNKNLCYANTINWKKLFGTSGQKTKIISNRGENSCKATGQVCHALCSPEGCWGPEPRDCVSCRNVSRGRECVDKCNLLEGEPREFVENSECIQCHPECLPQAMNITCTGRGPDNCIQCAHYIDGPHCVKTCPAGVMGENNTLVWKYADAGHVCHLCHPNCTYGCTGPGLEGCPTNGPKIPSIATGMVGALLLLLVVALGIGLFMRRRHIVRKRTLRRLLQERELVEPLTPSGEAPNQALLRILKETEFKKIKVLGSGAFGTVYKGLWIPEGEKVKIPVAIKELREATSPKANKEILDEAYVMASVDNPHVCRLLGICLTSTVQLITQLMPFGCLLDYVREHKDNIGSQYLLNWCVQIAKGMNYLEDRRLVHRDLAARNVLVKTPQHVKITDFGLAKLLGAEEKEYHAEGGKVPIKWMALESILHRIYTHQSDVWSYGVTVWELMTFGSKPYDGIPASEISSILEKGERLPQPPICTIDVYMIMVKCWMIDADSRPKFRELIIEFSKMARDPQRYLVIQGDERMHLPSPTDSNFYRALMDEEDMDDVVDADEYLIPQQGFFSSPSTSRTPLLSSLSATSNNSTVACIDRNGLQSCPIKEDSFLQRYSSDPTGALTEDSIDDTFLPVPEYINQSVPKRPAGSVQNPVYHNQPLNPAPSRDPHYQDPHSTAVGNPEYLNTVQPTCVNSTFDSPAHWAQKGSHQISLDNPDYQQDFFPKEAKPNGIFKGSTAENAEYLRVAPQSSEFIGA", "test": "Lead Profiling Screen – Eurofins Panlabs", "assay_type": "binding", "details": "read-out: % inh at 10 μM"}, "[6]": {"target": "Serotonin (5-Hydroxytryptamine) 5-HT1A (Homo sapiens, UniProt P08908)", "sequence (P08908 whole entry)": "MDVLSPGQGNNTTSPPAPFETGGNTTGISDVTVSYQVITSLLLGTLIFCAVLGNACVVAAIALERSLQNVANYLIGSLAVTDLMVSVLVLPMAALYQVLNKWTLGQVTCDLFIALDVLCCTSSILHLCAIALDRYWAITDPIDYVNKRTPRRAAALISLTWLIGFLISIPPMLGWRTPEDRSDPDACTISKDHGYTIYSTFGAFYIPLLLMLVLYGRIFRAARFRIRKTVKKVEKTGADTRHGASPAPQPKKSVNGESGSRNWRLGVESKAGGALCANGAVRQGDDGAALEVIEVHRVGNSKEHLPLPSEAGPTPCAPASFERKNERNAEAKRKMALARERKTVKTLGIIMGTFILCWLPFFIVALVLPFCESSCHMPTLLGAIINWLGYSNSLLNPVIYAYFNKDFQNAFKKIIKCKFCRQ", "test": "Lead Profiling Screen – Eurofins Panlabs", "assay_type": "binding", "details": "read-out: % inh at 10 μM"}, "[7]": {"system": "amphetamine-induced hyperlocomotion in rats", "test": "Rat amphetamine-induced hyperlocomotion (AHL)", "assay_type": "in vivo", "details": "for mean reversal of AHL: listed as VU6016235", "experimental": "Rat Amphetamine-Induced Hyperlocomotion (AHL) Protocol\nMale Harlan Sprague Dawley rats with a mean body weight of 240 g (range 221-264 g) were tested in SmartFrame Open Field locomotor activity test chambers to automatically record locomotor activity. All rats were habituated in locomotor activity enclosures for 30 min, followed by pretreatment by oral gavage for an additional 30 min with either vehicle or a dose of VU6016235 or the comparator M 4 PAM VU0467154. Next, rats were injected subcutaneously with vehicle or a dose of 0.75 mg/kg amphetamine and then monitored for an additional 60 min. Changes in locomotor activity were recorded for a total of 120 min. Locomotor data were expressed as the number of photobeam breaks/5 min intervals across the 120-min test session or as the total ambulation, calculated as sum of photobeam beam breaks from the time of amphetamine administration (60 min) until the end of the study (120 min). Time course data were analyzed by two-way ANOVA with main effects of treatment and time; changes in total ambulation were analyzed by one-way ANOVA followed by Dunnett’s post hoc test (GraphPad Prism 7 [GraphPad Software, San Diego, CA]). For all tests, α ≤ 0.05 was considered to represent statistical significance.\nFinally, percent reversal data were calculated in Microsoft Excel using the following formula: Percent Reversal = 100 - {[(total ambulation in individual animal from t = 60 to t = 120) / (mean total ambulation […]\nfrom t=60 to t=120 in the VAMP group)] * 100}. Mean percent reversal ± S.E.M. was calculated for each dose group using GraphPad Prism 7.\nAt the end of this behavioral study, each rat was euthanized, then decapitated, and the plasma and brain tissues were collected for the evaluation of exposure levels of VU6016235-05 or VU0467154-9A by pharmacokinetic analysis. […]"}, "cardiac ion channels": {"system": "cardiac ion channels", "test": "Charles River ChanTest Cardiac Channel Panel (patch clamp), whole panel", "assay_type": "cell-based, human", "details": "10 μM", "experimental": "page 17: Table S3. Cardiac Ion Channel Panel - Charles River Laboratories for VU6016235 Ion Channel Concentration Mean % Standard Standard n (μM) Inhibition Deviation Error hCav1.2 10 13.9 8.9 5.1 3 hCav3.2 10 6.7 2.7 1.4 4 hHCN2 10 2.6 1.9 1.1 3 hERG 10 10.9 0.9 0.4 4 hKv1.5 10 1.3 1.8 0.9 4 […] 10 4.1 5.6 2.8 4 hKv1.3 10 9 2.9 1.7 3 hNav1.5 (Tonic) 10 5.8 0.6 0.4 3 […] (Phasic) The in vitro effects of VU6016235 were evaluated at room temperature using the QPatch HT® (Sophion Bioscience A/S, Denmark), an automatic parallel patch clamp system. VU6016235 was evaluated at a concentration of 10 μM and tested in at least 3 cells (n ≥ 3). […] Next, rats were injected subcutaneously with vehicle or a dose of 0.75 mg/kg amphetamine and then monitored for an additional 60 min. Changes in locomotor activity were recorded for a total of 120 min. Locomotor data were expressed as the number of photobeam breaks/5 min intervals across the 120-min test session or as the total ambulation, calculated as sum of photobeam beam breaks from the time of amphetamine administration (60 min) until the end of the study (120 min). Time course data were analyzed by two-way ANOVA with main effects of treatment and time; changes in total ambulation were analyzed by one-way ANOVA followed by Dunnett's post hoc test (GraphPad Prism 7 [GraphPad Software, San Diego, CA]). […]"}, "Cannabinoid CB1": {"target": "T6, Cannabinoid CB1 (Homo sapiens, UniProt P21554)", "T6 construct": "Eurofins Panlabs (contract screen)", "T6 sequence (P21554 whole entry)": "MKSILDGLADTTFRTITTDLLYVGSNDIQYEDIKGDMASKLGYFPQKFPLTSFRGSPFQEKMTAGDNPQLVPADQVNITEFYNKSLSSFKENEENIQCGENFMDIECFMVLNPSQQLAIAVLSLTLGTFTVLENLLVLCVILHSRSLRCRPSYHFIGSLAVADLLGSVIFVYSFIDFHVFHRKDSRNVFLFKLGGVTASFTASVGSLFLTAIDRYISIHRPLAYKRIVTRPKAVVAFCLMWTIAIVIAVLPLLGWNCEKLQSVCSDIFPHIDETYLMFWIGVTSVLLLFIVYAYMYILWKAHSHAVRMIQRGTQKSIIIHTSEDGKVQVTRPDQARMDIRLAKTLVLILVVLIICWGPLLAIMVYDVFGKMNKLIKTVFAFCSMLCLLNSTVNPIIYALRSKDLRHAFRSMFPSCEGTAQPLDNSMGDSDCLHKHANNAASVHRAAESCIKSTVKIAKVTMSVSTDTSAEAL", "test": "Lead Profiling Screen – Eurofins Panlabs", "assay_type": "binding", "details": "read-out: % inh at 10 μM"}},
  "data": [
    {"smiles": "Cc1nc(C)c2c(n1)sc1c(NCc3ccc(C(C)(C)O)cc3)nccc12", "note": "[22g]", "values": [
      {"measurement": "inhibition at 10 µM", "setting": "Muscarinic M3", "value": 4, "unit": "%"},
      {"measurement": "inhibition at 10 µM", "setting": "Dopamine D3", "value": 3, "unit": "%"},
      {"measurement": "inhibition at 10 µM", "setting": "[1]", "value": 25, "unit": "%"},
      {"measurement": "inhibition at 10 µM", "setting": "Opiate δ1 (OP1, DOP)", "value": -2, "unit": "%"},
      {"measurement": "inhibition at 10 µM", "setting": "Endothelin ETB", "value": 6, "unit": "%"},
      {"measurement": "human M3 %Ach Max", "setting": "human M3", "value": "inactive"},
      {"measurement": "human M3 EC50", "setting": "human M3", "value": "inactive"},
      {"measurement": "inhibition at 10 µM", "setting": "[2]", "value": -8, "unit": "%"},
      {"measurement": "Papp A→B", "setting": "[3]", "value": 47, "unit": "×10⁻⁶ cm/s"},
      {"measurement": "Papp B→A", "setting": "[3]", "value": 68, "unit": "×10⁻⁶ cm/s"},
      {"measurement": "inhibition at 10 µM", "setting": "[4]", "value": 7, "unit": "%"},
      {"measurement": "inhibition at 10 µM", "setting": "Prostanoid EP4", "value": 16, "unit": "%"},
      {"measurement": "inhibition at 10 µM", "setting": "Adrenergic α1A", "value": 3, "unit": "%"},
      {"measurement": "IC50", "setting": "CYP 3A4", "value": 17, "unit": "µM"},
      {"measurement": "inhibition at 10 µM", "setting": "[5]", "value": -3, "unit": "%"},
      {"measurement": "inhibition at 10 µM", "setting": "[6]", "value": 7, "unit": "%"},
      {"measurement": "mean % reversal of AHL", "setting": "[7]; 0.56 mg/kg p.o. + amphetamine 0.75 mg/kg s.c.", "value": "12.8 ± 3.9", "unit": "%"},
      {"measurement": "mean reversal of AHL", "setting": "[7]; 3 mg/kg p.o. + amphetamine 0.75 mg/kg s.c.", "value": 41.4, "unit": "%"},
      {"measurement": "mean reversal of AHL", "setting": "[7]; 10 mg/kg p.o. + amphetamine 0.75 mg/kg s.c.", "value": 54.2, "unit": "%"},
      {"measurement": "MED, reversal of AHL", "setting": "[7]; oral administration", "value": 1, "unit": "mg/kg"},
      {"measurement": "inhibition, all ion channels", "setting": "cardiac ion channels", "value": "≤ 14", "unit": "%"},
      {"measurement": "inhibition at 10 µM", "setting": "Cannabinoid CB1", "value": -4, "unit": "%"}
    ]}
  ]
}
